Experimental findings from PubChem BioAssay (NCI) are described below.

Test systems include M14 melanoma; IGROV1 ovarian; BT-549 breast; HOP-92 NSCLC; UO-31 renal; MDA-MB-435; RXF 393 renal; HT29 colon; DU-145 prostate; OVCAR-4 ovarian.
Common to all, as to assay: growth of human tumour cells (NCI), 48 h

Values joined by “and” are separate entries in the source; they are usually repeats but may differ in a detail not shown here. Equal values may be shown once.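 Briefly, cells in 96-well plates were exposed to five compound concentrations for 48 h, and endpoints were estimated by linear interpolation. GI50 is the concentration that inhibits growth by half. TGI: concentration producing complete growth inhibition.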

For `CC[N+](CC)=c1sc2c(s1)C(c1ccc(Cl)cc1)Oc1ccc(Cl)cc1-2` (stereo unspecified), the GI50 in the assay with M14 melanoma is 1.86 µM; with IGROV1 ovarian, 1.6 µM; with BT-549 breast, 0.749 µM; in the assay with HOP-92 NSCLC, 2.4 µM; in the assay with UO-31 renal, 2.82 µM; with MDA-MB-435, 2.04 µM. In addition, the GI50 with RXF 393 renal was 2.26 µM; in the assay on HT29 colon, 2.2 µM; with DU-145 prostate, 3.32 µM; in the assay with OVCAR-4 ovarian, 3.03 µM. Further, the TGI stood at 4 µM with M14 melanoma; 10.7 µM in the assay with IGROV1 ovarian; 2.31 µM in the assay on BT-549 breast; 5.66 µM in the assay with HOP-92 NSCLC; 15.4 µM in the assay on UO-31 renal; 4.66 µM in the assay on MDA-MB-435. Further, the TGI in the assay on RXF 393 renal is 4.86 µM; in the assay with HT29 colon it was 5.07 µM; with DU-145 prostate it was 10.6 µM; in the assay with OVCAR-4 ovarian, 12.7 µM.
In the case of `Cc1nc(SCC(=O)Nc2nc(-c3ccc(Cl)cc3)cs2)n(Nc2ccccc2)c1C`, the GI50 is 3.69 µM in the assay on M14 melanoma; 3.36 µM with IGROV1 ovarian; 7.02 µM in the assay with BT-549 breast; 1.61 µM in the assay on HOP-92 NSCLC; 3.59 µM in the assay with UO-31 renal; 3.25 µM with MDA-MB-435. Also, the GI50 is 2.98 µM with RXF 393 renal, 3.78 µM with HT29 colon, 5.64 µM in the assay on DU-145 prostate and 4.6 µM in the assay on OVCAR-4 ovarian. The TGI with M14 melanoma was 16 µM; in the assay with IGROV1 ovarian, 20.6 µM; with BT-549 breast it was 20.9 µM; with HOP-92 NSCLC, 6.89 µM; with UO-31 renal it was 37.7 µM; in the assay on MDA-MB-435 it was 21.8 µM. Further, the TGI in the assay on RXF 393 renal was found to be 7.33 µM; in the assay with HT29 colon, 15.4 µM; in the assay on DU-145 prostate it was 18.7 µM; in the assay on OVCAR-4 ovarian it was 22.1 µM.
For the compound `CC(=O)OCC1OC(n2c(-c3ccc(Cl)cc3)ccc(C#N)c2=S)C(OC(C)=O)C(OC(C)=O)C1OC(C)=O` (stereo unspecified), the TGI in the assay on M14 melanoma is greater than 100 µM; in the assay on IGROV1 ovarian it was greater than 100 µM; in the assay on BT-549 breast it was 38.9 µM and > 100 µM; with HOP-92 NSCLC it was 18.8 µM and > 100 µM; in the assay on UO-31 renal, greater than 100 µM; with MDA-MB-435 it was greater than 100 µM. In addition, the TGI in the assay with RXF 393 renal is 36.3 µM and 74.5 µM; in the assay on HT29 colon it was greater than 100 µM; in the assay on DU-145 prostate it was greater than 100 µM; with OVCAR-4 ovarian it was > 100 µM and 93.3 µM. The GI50 in the assay with IGROV1 ovarian was 44.3 µM and > 100 µM; in the assay on BT-549 breast, 15.9 µM and 35 µM; with HOP-92 NSCLC it was 3.96 µM and 22.2 µM; in the assay with OVCAR-4 ovarian, > 100 µM and 19.9 µM.
On to `C=C1C(O)C2C(=C(CCc3ccccc3)C13CC3)C(=O)C(C)(CO)C2O` (stereo unspecified), for which the GI50 was greater than 100 µM with M14 melanoma; greater than 100 µM with IGROV1 ovarian; greater than 100 µM with BT-549 breast; 12.5 µM in the assay on HOP-92 NSCLC; greater than 100 µM in the assay on UO-31 renal; greater than 100 µM in the assay with MDA-MB-435. In addition, the GI50 in the assay on RXF 393 renal, in the assay with HT29 colon, with DU-145 prostate and in the assay on OVCAR-4 ovarian was greater than 100 µM in each case. Also, the TGI in the assay with M14 melanoma, with IGROV1 ovarian, in the assay on BT-549 breast, in the assay with HOP-92 NSCLC, in the assay on UO-31 renal and in the assay on MDA-MB-435 was greater than 100 µM in each case. For the same compound, the TGI in the assay with RXF 393 renal, in the assay with HT29 colon, in the assay with DU-145 prostate and in the assay on OVCAR-4 ovarian was greater than 100 µM throughout.
As for `C=C(C)C(=O)O[C@H]1C[C@@]23O[C@@H]2CCC(=C[C@H]2OC(=O)C(=C)[C@H]12)COC3O` (stereo partly specified), the TGI was greater than 100 µM in the assay on M14 melanoma; greater than 100 µM in the assay on IGROV1 ovarian; greater than 100 µM in the assay on BT-549 breast; 53.6 µM with HOP-92 NSCLC; greater than 100 µM in the assay on MDA-MB-435; 89.6 µM in the assay on RXF 393 renal. In addition, the TGI in the assay on HT29 colon, with DU-145 prostate and in the assay with OVCAR-4 ovarian was greater than 100 µM each time.
As to `COc1cc(-c2cc3ncccc3c3nc(N)c4cccnc4c23)cc(OC)c1OC`, the GI50 with M14 melanoma is 0.284 µM; in the assay with IGROV1 ovarian it was 1.56 µM; in the assay on BT-549 breast it was 0.285 µM; in the assay on HOP-92 NSCLC, 9.17 µM; with UO-31 renal it was 0.936 µM; with MDA-MB-435 it was 0.0455 µM. For the same compound, the GI50 with RXF 393 renal is 0.742 µM; with HT29 colon, 0.0762 µM; in the assay with DU-145 prostate, 0.487 µM; in the assay on OVCAR-4 ovarian, 3.16 µM. Also, the TGI in the assay on M14 melanoma is 3.02 µM; with IGROV1 ovarian, greater than 100 µM; in the assay on BT-549 breast it was 1.88 µM; in the assay with HOP-92 NSCLC, greater than 100 µM; in the assay with UO-31 renal it was 59.8 µM; in the assay on MDA-MB-435 it was 11.2 µM. Further, the TGI with RXF 393 renal was 6.48 µM; in the assay with HT29 colon it was 15.5 µM; in the assay with DU-145 prostate, 3.13 µM; in the assay with OVCAR-4 ovarian, greater than 100 µM.
On to `CCOC(=O)c1sc(-c2ccc(OS(=O)(=O)c3ccc(Br)s3)c(C=O)c2)nc1C`, for which the GI50 with M14 melanoma was 3.22 µM; in the assay with IGROV1 ovarian, 3.31 µM; in the assay on BT-549 breast, 2.51 µM; in the assay on HOP-92 NSCLC, 2.08 µM; in the assay on UO-31 renal, 2.63 µM; with MDA-MB-435, 2.47 µM. Besides, the GI50 with RXF 393 renal was 2.81 µM; in the assay with HT29 colon it was 2.45 µM; in the assay with DU-145 prostate, 6.81 µM; with OVCAR-4 ovarian, 3.06 µM. Moreover, the TGI was 11.3 µM in the assay on M14 melanoma; 12.7 µM with IGROV1 ovarian; 6.57 µM in the assay with BT-549 breast; 6.87 µM in the assay on HOP-92 NSCLC; 9.76 µM in the assay with UO-31 renal; 6.79 µM in the assay on MDA-MB-435. The TGI came out at 13.5 µM in the assay with RXF 393 renal, 6.43 µM in the assay on HT29 colon, 24.8 µM in the assay with DU-145 prostate and 9.85 µM in the assay with OVCAR-4 ovarian.
Turning to `CCc1cccc(C)c1NC(=O)c1sc2nc3c(cc2c1N)CCCCC3`, the GI50 is 2.53 µM in the assay with M14 melanoma; 5.13 µM with IGROV1 ovarian; 5.18 µM in the assay on BT-549 breast; 13.3 µM with HOP-92 NSCLC; 6.08 µM with UO-31 renal; 1.6 µM in the assay on RXF 393 renal. Besides, the GI50 was 3.26 µM in the assay with HT29 colon, 3.28 µM in the assay with DU-145 prostate and 8.37 µM with OVCAR-4 ovarian. In addition, the TGI is greater than 100 µM with M14 melanoma; greater than 100 µM with IGROV1 ovarian; 54.9 µM in the assay on BT-549 breast; 60.3 µM in the assay with HOP-92 NSCLC; greater than 100 µM in the assay with UO-31 renal; 6.4 µM in the assay on RXF 393 renal. In addition, the TGI in the assay with HT29 colon is 24.7 µM; with DU-145 prostate, greater than 100 µM; with OVCAR-4 ovarian, greater than 100 µM.
